Reference: US10464952B2, “Beta-lactamase inhibitors” (priority 2015, dated 2019)

What was measured:
KPC-2 = target: T1, KPC-2 (Klebsiella pneumoniae, UniProt Q9F663); test: β-lactamase enzyme inhibition assay, KPC-2 (imipenem substrate); format: biochemical
T1 construct: made in house; host or cells: E. coli BL21(DE3)
Protocol: (§1) For SHV-5, KPC-2, p99AmpC and OXA-4813-lactamases, E. coli BL21(DE3) bacterial cells carrying expression plasmids (expressed as native untagged proteins) for the individual β-lactamases were grown in 1L of Superbroth (Teknova Inc. Hollister, Calif.) supplemented with 100 μg/ml kanamycin selection and 1×5052 (0.5% glycerol, 0.05% glucose and 0.2% α-lactose) at 35° C. for 18-20 hours. Cells were harvested by centrifugation (4,000 ×g, 4° C., 20 min), re-suspended in 50 ml of 10 mM HEPES pH 7.5 (1/20 of the initial volume). The cells were lysed by sonication (5 pulses of 45 seconds) at 45 Won ice. The lysates were clarified by centrifugation at 10,000 ×g for 40 minutes at 4° C. Samples were diluted 5-fold in 50 mM sodium acetate pH 5.0, stored overnight at 4° C., after which they were centrifuged at 10,000 ×g for 30 minutes to clarify, and filtered through 0.45 μm filters. The samples were loaded onto a 5 ml Capto S sepharose cation exchange column (GE Healthcare) pre-equilibrated with 50 mM sodium acetate pH 5.0. The column was washed with 5 column volumes of 50 mM sodium acetate pH 5.0 to wash out unbound protein and a linear gradient of NaCl (0 to 500 mM) was used to elute the protein (over 16 CV) from the column. Fractions were assayed for β-lactamase activity using Centa (Calbiochem, Gibbstown, N.J.) or Nitrocefin (EMD Millipore chemicals, Darmstadt, Germany) as a reporter β-lactamase substrate for activity in the isolated fractions. Active fractions were pooled, concentrated and further purified by gel filtration chromatography on a Superdex 75 prep grade gel filtration column (GE Healthcare, Piscataway, N.J.) pre -equilibrated in 50 mM Hepes pH 7.5, 150 mM NaCl. Active fractions were pooled, concentrated, and quantitated by BCA protein determination (ThermoScientific, Rockford, Ill.), dialyzed into PBS and frozen at […] in 20% glycerol until use.
(§2) An equal volume of diluted enzyme stock was added, and the plates were incubated at 37° C. for 15 min. Nitrocefin was used as substrate for p99 AmpC, VIM-2 and OXA-48 and dispensed into each well at a final concentration of 100 μM. Absorbance at 486 nm was immediately monitored for 10 min using a Biotek Powerwave XS2 microplate spectrophotometer using the GEN5 software package (Biotek Instruments, Winooski Vt.). In an analogous fashion, imipenem was used as substrate for KPC-2 and Cefotaxime was used for SHV-5, while changes in absorbance upon hydrolysis of the β-lactam ring were monitored at 300 nm and 260 nm respectively in UV-transparent 96-well microtiter assay plates. Maximum rates of hydrolysis were compared to those in control wells (without inhibitors), and percentages of enzyme inhibition were calculated for each concentration of inhibitor. The concentration of inhibitor needed to reduce the initial rate of hydrolysis of substrate by 50% (IC50) was calculated as the residual activity of β-lactamase at 486 nm using GraFit version 7 kinetics software package (Erithacus Software, Surrey, UK).
(§3) Using the methodology described above, examples of the current invention were evaluated for their ability to inhibit β-lactamase enzymes from all four Ambler classifications (A through D). […] NT=Not tested.

[1] = target: T2, VIM-2 metallo β-lactamase (Pseudomonas aeruginosa, UniProt Q9K2N0); test: β-lactamase enzyme inhibition assay, VIM-2 (nitrocefin substrate); format: biochemical; settings: 15 min preincubation at 37° C.; nitrocefin 100 μM, 486 nm; read-out: IC50 VIM-2 (Class B)
T2 construct: made in house; host or cells: E. coli BL21(DE3)
Protocol: For VIM-2 metallo β-lactamase, the procedure was identical with the following exceptions, first the protein was not pH adjusted to pH 5 with 50 mM sodium acetate. Second, the chromatography step was changed to a 5 ml Q sepharose anion exchange column pre-equilibrated with 50 mM Hepes pH 7.5, and elution of the protein was achieved by a linear gradient of NaCl (0-600 mM). Finally, the VIM-2 purification required a second run (3rd step) on the Q sepharose anion exchange column to achieve acceptable purity (>90%).
as §2, §3

SHV-5 = target: T3, SHV-5 (Klebsiella pneumoniae, UniProt P0A3M1); test: β-lactamase enzyme inhibition assay, SHV-5 (cefotaxime substrate); format: biochemical
T3 construct: made in house; host or cells: E. coli BL21(DE3)
Protocol: as §1, §2, §3

[2] = system: E. cloacae expressing the Class C P99; test: Broth microdilution MIC assay, potentiation of ceftazidime; format: cell-based; settings: for MIC (μg/mL) of exemplary compounds in presence of fixed β-lactams, E. cl. 144200 p99 AmpC: Fixed CAZ 4 μg/mL, CAMHB, 16-20 hours at 37° C.
Excerpt: (§4) To determine the ability of test compounds to potentiate the inhibition of the growth of bacterial strains that produce beta-lactamase enzymes, classic cell based broth microdilution MIC assays were employed. Six bacteria strains producing beta-lactamase enzymes were used: E. coli expressing the Class A Extended Spectrum Beta-Lactamase (ESBL) CTX-M-15, E. cloacae expressing the Class C P99, K. pneumoniae expressing the Class A carbapenemase KPC-3, P.aeruginosa expressing the Class B carbapenemase VIM-2, K. pneumoniae expressing the class A carbapenemase KPC-2 and the class B carbapenemase VIM-4, and K. pneumoniae producing the Class D carbapenemase OXA-48. The assay was conducted in Cation Adjusted Mueller Hinton Broth (CAMHB, BD #212322, BD Diagnostic Systems, Sparks, Md.). Bacteria strains were grown for 3-5 hours in CAMHB broth. Test compounds were added to a microtiter plate in 2-fold serial dilutions in CAMHB in a final concentration range of 32 μg/mL to 0.015 μg/mL. An overlay of CAMHB containing a Beta-lactam was added to the compounds at a final static concentration of 4 μg/mL. […] In addition to the titration of test compounds the MICs of a panel of control beta-lactams is also tested to ensure the strains are behaving consistently from test to test. Once the test compound and antibiotics are added the plates can be inoculated according to CLSI broth microdilution method. After inoculation, the plates are incubated for 16-20 hours at 37° C., then the Minimal Inhibitory Concentration (MIC) of the test compound is determined visually.
(§5) Using the methodology described above, examples of the current invention were evaluated for their ability to inhibit the growth of β-lactamase-producing bacteria in the presence of a β-lactam antibiotic.
(§6) Representative results are shown in Table 3 where A represents an MIC of the fixed β-lactam antibiotic in the presence of >32 μg/mL of a β-lactamase inhibitor of exemplary compounds, B represents the MIC in the presence of between 8 and 32 μg/mL of a β-lactamase inhibitor of exemplary compounds, and C represents the MIC in the presence of ≤4 μg/mL of a β-lactamase inhibitor of exemplary compounds. NT=Not Tested.

[3] = system: E. coli expressing the Class A Extended Spectrum Beta-Lactamase (ESBL) CTX-M-15; test: as above; format: cell-based; settings: for MIC (μg/mL) of exemplary compounds in presence of fixed β-lactams, E. coli ESBL4 CTX-M-15: Fixed CAZ 4 μg/mL, CAMHB, 16-20 hours at 37° C.
Excerpt: as §4, §5, §6

[4] = system: K. pneumoniae expressing the class A carbapenemase KPC-2 and the class B carbapenemase VIM-4; test: Broth microdilution MIC assay, potentiation of meropenem; format: cell-based; settings: for MIC (μg/mL) of exemplary compounds in presence of fixed β-lactams, K.P. A-1797 KPC-2 VIM-4: Fixed Mero 4 μg/mL, CAMHB, 16-20 hours at 37° C.
Excerpt: as §4, §5, §6

[5] = system: P.aeruginosa expressing the Class B carbapenemase VIM-2; test: as above; format: cell-based; settings: for MIC (μg/mL) of exemplary compounds in presence of fixed β-lactams, P. aerug. 2775 VIM-2: Fixed Mero 4 μg/mL, CAMHB, 16-20 hours at 37° C.
Excerpt: as §4, §5, §6

OXA-48 = target: T4, OXA-48 (Klebsiella pneumoniae, UniProt Q6XEC0); test: β-lactamase enzyme inhibition assay, OXA-48 (nitrocefin substrate); format: biochemical
T4 construct: made in house; host or cells: E. coli BL21(DE3)
Protocol: as §1, §2, §3

p99 AmpC = target: T5, p99 AmpC (Enterobacter cloacae, UniProt P05364); test: β-lactamase enzyme inhibition assay, p99 AmpC (nitrocefin substrate); format: biochemical
T5 construct: made in house; host or cells: E. coli BL21(DE3)
Protocol: as §1, §2, §3

[6] = system: K. pneumoniae expressing the Class A carbapenemase KPC-3; test: Broth microdilution MIC assay, potentiation of meropenem; format: cell-based; settings: Fixed Mero 4 μg/mL; CAMHB, 16-20 hours at 37° C.
Excerpt: as §4, §5

[7] = system: K. pneumoniae producing the Class D carbapenemase OXA-48; test: as above; format: cell-based; settings: Fixed Mero 4 μg/mL; CAMHB, 16-20 hours at 37° C.
Excerpt: as §4, §5

T1 sequence (Q9F663 25-293 limits assumed): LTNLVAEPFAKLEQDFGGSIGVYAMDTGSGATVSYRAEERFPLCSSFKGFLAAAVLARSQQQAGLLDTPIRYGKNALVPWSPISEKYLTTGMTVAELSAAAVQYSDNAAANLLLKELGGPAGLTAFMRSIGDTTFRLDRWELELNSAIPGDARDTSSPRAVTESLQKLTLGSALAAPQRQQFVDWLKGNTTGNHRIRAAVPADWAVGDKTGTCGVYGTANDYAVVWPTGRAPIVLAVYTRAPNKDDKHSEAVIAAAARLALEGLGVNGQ
T4 sequence (Q6XEC0 23-265 limits assumed): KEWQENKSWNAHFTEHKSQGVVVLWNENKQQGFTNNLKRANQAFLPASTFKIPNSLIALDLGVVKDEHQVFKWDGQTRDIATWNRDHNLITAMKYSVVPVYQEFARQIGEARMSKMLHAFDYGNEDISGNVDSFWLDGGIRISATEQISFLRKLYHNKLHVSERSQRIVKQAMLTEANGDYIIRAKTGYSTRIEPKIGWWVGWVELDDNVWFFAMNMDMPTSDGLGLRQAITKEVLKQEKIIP
T3 sequence (P0A3M1 22-286): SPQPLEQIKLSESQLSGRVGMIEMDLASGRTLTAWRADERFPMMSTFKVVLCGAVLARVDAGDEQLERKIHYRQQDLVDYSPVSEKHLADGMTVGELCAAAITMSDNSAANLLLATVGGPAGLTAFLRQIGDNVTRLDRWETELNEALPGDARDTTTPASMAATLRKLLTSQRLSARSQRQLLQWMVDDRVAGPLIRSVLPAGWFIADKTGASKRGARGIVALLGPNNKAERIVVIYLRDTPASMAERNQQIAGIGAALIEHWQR
T5 sequence (P05364 21-381): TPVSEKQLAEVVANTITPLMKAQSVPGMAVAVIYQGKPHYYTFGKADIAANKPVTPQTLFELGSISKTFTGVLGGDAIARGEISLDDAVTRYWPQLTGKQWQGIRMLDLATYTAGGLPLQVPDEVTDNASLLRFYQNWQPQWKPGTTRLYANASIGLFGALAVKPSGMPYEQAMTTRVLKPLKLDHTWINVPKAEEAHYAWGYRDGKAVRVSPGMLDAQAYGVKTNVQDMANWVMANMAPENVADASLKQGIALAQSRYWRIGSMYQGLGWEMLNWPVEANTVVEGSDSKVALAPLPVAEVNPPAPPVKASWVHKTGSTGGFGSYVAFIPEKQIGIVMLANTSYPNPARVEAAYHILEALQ

CC(F)C(=O)N[C@H]1Cc2cccc(C(=O)O)c2OB1O (mixture of isomers) [Example 102, (3R)-3-(2-fluoropropanamido)-2-hydroxy-3,4-dihydro-2H -benzo[e][1,2]oxaborinine-8-carboxylic acid]
IC50 (KPC-2): < 100 nM | IC50 [1]: 1000 to 10000 nM | IC50 (SHV-5): < 100 nM | MIC (μg/mL) of exemplary compounds in presence of fixed β-lactams, E. cl. 144200 p99 AmpC [2]: C (C represents the MIC in the presence of ≤4 μg/mL of a β-lactamase inhibitor) | MIC (μg/mL) of exemplary compounds in presence of fixed β-lactams, E. coli ESBL4 CTX-M-15 [3]: C (C represents the MIC in the presence of ≤4 μg/mL of a β-lactamase inhibitor) | MIC (μg/mL) of exemplary compounds in presence of fixed β-lactams, K.P. A-1797 KPC-2 VIM-4 [4]: B (B represents the MIC in the presence of between 8 and 32 μg/mL of a β-lactamase inhibitor) | MIC (μg/mL) of exemplary compounds in presence of fixed β-lactams, P. aerug. 2775 VIM-2 [5]: C (C represents the MIC in the presence of ≤4 μg/mL of a β-lactamase inhibitor) | IC50 (OXA-48): 100 to 1000 nM | IC50 (p99 AmpC): < 100 nM | MIC (μg/mL) of exemplary compounds in presence of fixed β-lactams, K. P. 156319 KPC-3 [6]: C (C represents the MIC in the presence of ≤4 μg/mL of a β-lactamase inhibitor) | MIC (μg/mL) of exemplary compounds in presence of fixed β-lactams, K. P. 11978 OXA-48 [7]: C (C represents the MIC in the presence of ≤4 μg/mL of a β-lactamase inhibitor)

CC(C)(O/N=C(\C(=O)N[C@@H]1C(=O)N2C(C(=O)[O-])=C(C[n+]3ccccc3)CS[C@H]12)c1csc(N)n1)C(=O)O [Ceftazidime, reference compound]
MIC alone of partner antibiotic ([2]; antibiotic alone, E. cloacae expressing Class C P99): 128 µg/mL | MIC alone of partner antibiotic ([3]; antibiotic alone, E. coli expressing Ambler Class A ESBL CTX-M-15): > 128 µg/mL

CCC(F)(F)C(=O)N[C@H]1Cc2cccc(C(=O)O)c2OB1O [Example 1, (R)-3-(2,2-difluorobutanamido)-2-hydroxy-3,4-dihydro-2H-benzo [e] [1,2] oxaborinine-8-carboxylic acid]
IC50 (KPC-2): 100 to 1000 nM | IC50 [1]: 1000 to 10000 nM | IC50 (SHV-5): < 100 nM | MIC (μg/mL) of exemplary compounds in presence of fixed β-lactams, E. cl. 144200 p99 AmpC [2]: C (C represents the MIC in the presence of ≤4 μg/mL of a β-lactamase inhibitor) | MIC (μg/mL) of exemplary compounds in presence of fixed β-lactams, E. coli ESBL4 CTX-M-15 [3]: C (C represents the MIC in the presence of ≤4 μg/mL of a β-lactamase inhibitor) | MIC (μg/mL) of exemplary compounds in presence of fixed β-lactams, K.P. A-1797 KPC-2 VIM-4 [4]: B (B represents the MIC in the presence of between 8 and 32 μg/mL of a β-lactamase inhibitor) | MIC (μg/mL) of exemplary compounds in presence of fixed β-lactams, P. aerug. 2775 VIM-2 [5]: C (C represents the MIC in the presence of ≤4 μg/mL of a β-lactamase inhibitor) | IC50 (OXA-48): 100 to 1000 nM | IC50 (p99 AmpC): < 100 nM | MIC (μg/mL) of exemplary compounds in presence of fixed β-lactams, K. P. 156319 KPC-3 [6]: B (B represents the MIC in the presence of between 8 and 32 μg/mL of a β-lactamase inhibitor) | MIC (μg/mL) of exemplary compounds in presence of fixed β-lactams, K. P. 11978 OXA-48 [7]: C (C represents the MIC in the presence of ≤4 μg/mL of a β-lactamase inhibitor)

O=C(CCCC(F)(F)F)N[C@H]1Cc2cccc(C(=O)O)c2OB1O [Example 2, (R)-2-hydroxy-3-(5,5,5-trifluoropentanamido)-3,4-dihydro-2H-benzo[e][1,2]oxaborinine-8-carboxylic acid]
IC50 (KPC-2): < 100 nM | IC50 [1]: 1000 to 10000 nM | IC50 (SHV-5): < 100 nM | MIC (μg/mL) of exemplary compounds in presence of fixed β-lactams, E. cl. 144200 p99 AmpC [2]: C (C represents the MIC in the presence of ≤4 μg/mL of a β-lactamase inhibitor) | MIC (μg/mL) of exemplary compounds in presence of fixed β-lactams, E. coli ESBL4 CTX-M-15 [3]: C (C represents the MIC in the presence of ≤4 μg/mL of a β-lactamase inhibitor) | MIC (μg/mL) of exemplary compounds in presence of fixed β-lactams, K.P. A-1797 KPC-2 VIM-4 [4]: C (C represents the MIC in the presence of ≤4 μg/mL of a β-lactamase inhibitor) | MIC (μg/mL) of exemplary compounds in presence of fixed β-lactams, P. aerug. 2775 VIM-2 [5]: B (B represents the MIC in the presence of between 8 and 32 μg/mL of a β-lactamase inhibitor) | IC50 (OXA-48): 100 to 1000 nM | IC50 (p99 AmpC): < 100 nM | MIC (μg/mL) of exemplary compounds in presence of fixed β-lactams, K. P. 156319 KPC-3 [6]: C (C represents the MIC in the presence of ≤4 μg/mL of a β-lactamase inhibitor) | MIC (μg/mL) of exemplary compounds in presence of fixed β-lactams, K. P. 11978 OXA-48 [7]: C (C represents the MIC in the presence of ≤4 μg/mL of a β-lactamase inhibitor)

C[C@@H](O)[C@H]1C(=O)N2C(C(=O)O)=C(S[C@@H]3CN[C@H](C(=O)N(C)C)C3)[C@H](C)[C@H]12 [Meropenem, reference compound]
MIC alone of partner antibiotic ([4]; antibiotic alone, K. pneumoniae expressing KPC-2 and VIM-4): 64 µg/mL | MIC alone of partner antibiotic ([5]; antibiotic alone, P. aeruginosa expressing VIM-2): 16 µg/mL
